Common to all, as to assay type: physicochemical
A short description of series [1]: Characteristic release time by phase-contrast optical microscopy. As to conditions: assessed visually using a microscope. The method, then:
Various emulsions are prepared according to the procedure defined in Example No. 1. The concentration of the surface-active agent (SDS) present in the external aqueous phase is varied and the change over time of the double emulsion is observed with a phase-contrast optical microscope (Zeiss Axiovert 100). The curve in FIG. 2 describes the change in the characteristic release time as a function of the concentration of surface-active agent present in the external aqueous phase. The characteristic release time is defined as the time at the end of which virtually all the droplets of phase A1 have been released into the external aqueous phase A2 (by coalescence). As indicated, this time is assessed visually using a microscope. It will be noted that the release time changes from several days, when the concentration is less than 10 CMC, to only a few hours, when the concentration is equal to 40 CMC.

Series [2] in a line: Transfer of inverse-emulsion water droplets to an aqueous surfactant phase, detected by AgCl precipitate. The procedure:
In a first step, a monodisperse water-in-dodecane inverse emulsion which is stabilized with Span 80® (sorbitan monooleate from the company Sigma) is prepared. This emulsion is prepared by slowing introducing the disperse aqueous phase (80% by volume) with gentle shearing (of the order of 1000 s^−1) into a continuous phase composed of a dodecane/Span 80 mixture in a 1/1 ratio by weight. Sodium chloride NaCl (0.1M), intended to simulate the presence of the active principle in the aqueous phase A1, is added. Advantageously, it has been shown that the presence of this salt reinforces the stability of the inverse emulsion Ei (Aronson M. P., Petko M. F., J. Colloid Interface Sci., 1993, 159, 134). The initial polydisperse emulsion is converted by a fractional crystallisation technique (Bibette J., J. Colloid Interface Sci., 1991, 147, 474) into a monodisperse emulsion.
Several multiple emulsions were subsequently prepared from this inverse emulsion by mixing it with an aqueous solution comprising sodium dodecyl sulphate (SDS, HLB=40) at various concentrations below or greater than its critical micelle concentration, which is 8×10^−3 mol/l.
The test consists in carefully bringing together (over an area of 1 cm^2) equivalent volumes (1 cm^3) of the inverse emulsion and of water comprising variable amounts of SDS surfactant and a concentration of AgNO3 at a concentration of 10^−3 mol/l. The transfer of the water present in the inverse droplets to the macroscopic aqueous phase is detected by observation of an AgCl precipitate which is formed at the macroscopic interface when the internal contents transfer to the external phase. This is because, when the water droplets move via a coalescence phenomenon from the upper inverse emulsion to the lower aqueous phase, the upper phase gradually becomes transparent whereas the lower phase gradually becomes milky.
Above this limit concentration, the water droplets quickly transfer (in less than 48 hours) within the second phase. […]

A short description of series [3]: Potentiometric determination of salt (KCl) release from a monodisperse double emulsion. The procedure:
A monodisperse water-in-dodecane inverse emulsion which is stabilized with Span 80 is prepared.
The aqueous phase (80% by volume) is introduced with gentle shearing (of the order of 1000 s^−1) into a continuous phase composed of a dodecane/Span mixture (1:1 by mass). The aqueous phase comprises 1 mol per liter of potassium chloride. This salt acts as active substance which has to be released. The initial polydisperse emulsion is converted by a fractional crystallisation technique, so as to obtain a monodisperse emulsion (Bibette J., J. Colloid Interface Sci., 1991, 147, 474).
The preceding inverse emulsion is emulsified in its turn in an aqueous phase comprising a hydrophilic surface active agent (SDS). A double emulsion is thus obtained composed of oily globules comprising water droplets, which droplets result from the first stage.
The double emulsion is manufactured using a microfluidizer (Jet homogenizer from Labplant). This method consists in bringing the disperse phase and the continuous phase into contact under very high pressure and in then injecting the mixture via a hole with a small diameter (0.1 mm).
The concentration of the KCl initially incorporated in the internal aqueous phase of the double emulsion is measured in the external aqueous phase by potentiometry.
The potentiometric quantitative determination is based on the measurement of a difference in potential between an indicator electrode (Ag/AgCl) and a reference electrode (mercurous sulphate electrode) which are immersed in the colloidal solution comprising the electrolyte to be quantitatively determined (Cl^− ion). The concentration of the Cl^− ion is in this case directly related to the potential ΔE of the Ag/AgCl electrode by a relationship of the type:
ΔE=β+α log Cq (Nernst relationship).
It is then possible, via a calibration line, to know at any moment the concentration of Cl^− ion released into the external aqueous phase.
The results obtained are presented in graphical form in FIG. 1. […]

A short description of series [4]: Stability of the multiple emulsion versus surfactant concentration in the external phase (microscope). The procedure:
In this test, a multiple emulsion is prepared by dispersing the inverse emulsion in a continuous aqueous phase comprising the SDS surfactant at a concentration equal to one tenth of its critical micelle concentration. The inverse phase is the same as that described above in Example 1: the fraction by volume of water drops is present therein at a concentration of 10% by volume with 0.1 mol/l of NaCl for a concentration of surfactant of 2%. The multiple emulsion is therefore composed of 90% by volume of an external aqueous phase and of 10% of the inverse phase. A high degree of shearing, of the order of 10,000 revolutions per minute, is applied using an Ultra-turrax device for 10 seconds to a total volume of […] of the overall composition, which results in the appearance of double drops in which the water content and the size of the droplets are retained.
Double drops are observed, with each of them comprising small inverse water drops.
This test is repeated, the concentration of the surfactant within the external aqueous phase Ce being varied and the double emulsion being freshly prepared, and the duration of existence of the internal water droplets is recorded. […] This transition takes place for exactly the same concentration as that mentioned in Example 1, that is to say approximately 10 CMC. […] It is thus observed, under a microscope, that only phenomena of coalescence between the tiny inverse water drops and the interface of the direct drops are responsible for the change which is observed.
Only a gradual decrease in the concentration of internal droplets is observed.

Series [5] can be described thus: Multiple emulsions with Tween 80 in aqueous phase A2: transfer of internal water droplets. As to conditions: Tween 80 as surfactant in aqueous phase A2. The procedure: Multiple emulsions are prepared according to the procedure described in the preceding examples by using Tween 80 in the aqueous phase A2 as surfactant. Its HLB is 15 and its critical micelle concentration is […]. The same type of result is observed. Transfer of the internal water droplets is also dependent on the concentration Ce of the surfactant in the external phase. In this case, the limit concentration is approximately 200 CMC.
It is observed for this surfactant that the internal water droplets coalesce with one another. This instability appears rapidly and results in a few internal water drops with a greater surface area, still imprisoned in the oily globules.

With `CCCCCCCCCCCCOS(=O)(=O)[O-].[Na+]` [SDS, sodium dodecyl sulphate], the characteristic release time result in series [1] (SDS concentration equal to 40 CMC) is reported as “a few hours”; in series [1] (SDS concentration less than 10 CMC), “several days”. In series [2] (above the limit concentration (approximately 10 CMC)), the “time for transfer of the water droplets within the second phase” value is given as “less than 48 hours”. For the same molecule, in series [2] (same test with gentle centrifuging for 15 minutes), the “concentration at which transfer via coalescence takes place” value was found to be 10 CMC. The “limit concentration of surfactant below which the water droplets do not transfer to the second phase” value in series [2] (water-in-dodecane inverse emulsion (Span 80, NaCl 0.1M) on water with AgNO3 10^−3 mol/l, no transfer even for several days below the limit) was “approximately 10 CMC”. In series [3] (KCl double emulsion, globules 4 μm, droplets 0.3 μm), the concentration threshold amounted to 10 CMC. In series [3] (SDS concentration greater or equal to 10 CMC, KCl 1 mol per liter in internal phase, release by coalescence), the “time corresponding to complete release of the salt” value is reported as “less than 500 minutes”. Besides, in series [3] (SDS concentration less than 10 CMC, passive diffusion, emulsion retains its double nature), the “release of the salt into the external aqueous phase” value is given as “very slow”. In series [4] (SDS at one tenth of its CMC in external phase, after storage for two months), the “coalescence between the big double globules” value is “No phenomenon of coalescence”. Besides, in series [4] (SDS concentration above the transition (approximately 10 CMC)), the “period of time for conversion into a direct emulsion” value is “a few hours”. The “duration for which the double emulsion is retained” value in series [4] (SDS concentration below the transition (approximately 10 CMC)) is on record as “more than one month”. For the same molecule, the “concentration at which the double emulsion is converted into a direct emulsion (transition)” value in series [4] (freshly prepared double emulsion, NaCl 0.1 mol/l internal phase, Span 80 2%) is listed as “approximately 10 CMC”.

For `CCCCCCCC/C=C\CCCCCCCC(=O)OCCOCC(OCCO)C1OCC(OCCO)C1OCCO` (stereo not shown) [Tween 80], the “limit concentration for transfer of the internal water droplets” value in series [5] is reported as “approximately 200 CMC”.

(Values after patent US6627603B1, “Method for releasing an active principle contained a multiple emulsion” (Centre National de la Recherche Scientifiquue (C.N.R.S.), priority 1997, dated 2003).)
